How the values were obtained:
human NLRP3 [1] = biological target: T1, human NLRP3 (Homo sapiens, UniProt Q96P20); assay: Scintillation Proximity (SPA) NLRP3 Assay, displacement of 3H-MCC950; assay type: binding; settings: for IC50: displacement of 3H-MCC950 from human NLRP3; for fold improvement in binding activity (SPA IC50): relative to Comparative Example B1
How it was run: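 Displacement of radioligand 3H-MCC950 (125 nM final) from 350 nM human NLRP3, read by scintillation proximity after 6 h equilibration with PVT beads. Buffer: 20 mM HEPES pH 7.5, 150 mM NaCl, 5 mM MgCl2, 100 μM ADP; compound preincubated 15 min, ligand 60 min, RT. IC50 from specific binding.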

human NLRP3 [2] = biological target: T1, human NLRP3; assay: Human Whole Blood (hWB) NLRP3 Assay (LPS/ATP, IL-1β); assay type: cell-based; set-up: host or cells: human whole blood from healthy volunteers (A3)
Procedure: Human whole blood is drawn from healthy volunteers after obtaining written informed consent. Heparin lithium coated tubes are used to collect blood from volunteers. Blood samples are distributed on 96 well plates using 90 μl per well.
Priming procedure: Priming is performed by adding 5 μl of LPS (O26:B6; Sigma L-2654) at a final concentration of 1 μg/ml for 4.5 hours in a humidified incubator with 37° C., 5% CO2. Thirty minutes prior to NLRP3 activation, 5 μl of a 20× compound solution or vehicle (2% dimethylsulfoxide (DMSO)) is added to each well and plates were incubated on a shaker (450 rpm) in a humidified incubator with 37° C., 5% CO2.
Alternative priming procedure: Thirty minutes prior to LPS priming, 5 μl of a 20× compound solution or vehicle (2% dimethylsulfoxide (DMSO)) is added to each well and plates were incubated on a shaker (450 rpm) in a humidified incubator with 37° C., 5% CO2. Priming is performed by adding 5 μl of LPS (O26:B6; Sigma L-2654) at a final concentration of 1 μg/ml for 5 hours in a humidified incubator with 37° C., 5% CO2.
Activation is then performed by adding 3.3 μl of a 31×ATP solution per well. At the end of the 30 minutes stimulation, the plates are centrifuged (800 g, 10 min, room temperature) and the plasma from each well is frozen at −80° C. IL-1β levels in the supernatant were analyzed using a mesoscale discovery assay (MSD K151TUK) according to the manufacturers' instructions.
There is no detectable difference in assay results using the priming procedure versus the alternative priming procedure.
hWB NLRP3 IC50 assay results, as a measurement of whole blood potency, are provided in Table B. “A” activity=<1 uM; “B” activity=1-2 uM; “C” activity=>2-3 uM; “D” activity=>3 uM.

human NLRP3 [3] = biological target: T1, human NLRP3; assay: Human PBMC NLRP3 Assay (LPS priming, ATP stimulation, cytokine measurement); assay type: cell-based; set-up: host or cells: human PBMCs (A2); human whole blood from healthy volunteers (A3); settings: for IC50: human PBMC, LPS + ATP
Procedure: Reagents: Human PBMCs (Normal): iXCells Cat #10HU-003; RPMI 1640 medium with GlutaMAX: ThermoFisher Cat #61870127 (Complete Media: 4.5 g/L D-glucose, 10% FBS, 100 mM NaPyr, 1% Pen/Strep, 10 mM HEPES and 0.05 mM of ®-mercaptoethanol; Assay Media: 4.5 g/L D-glucose, 100 mM NaPyr, 1% Pen/Strep, 10 mM HEPES and 0.05 mM of mercaptoethanol; 96-well V-bottom Plates: Costar Cat #3894; LPS (E. coli O26:B6): Sigma Cat #L2654, stock 5 mg/mL in PBS; ATP: Sigma Cat #A6419, prepared in a 250 mM stock in 1 M HEPES (adjusted to pH 7.4).
Cryopreserved PBMCs were rapidly thawed in a 37° C. water bath for 2 min. Cells were then centrifuged at 1200 RPM for 5 min and resuspended in ˜50 mL of fresh RPMI 1640 Complete Medium. A count was undertaken using a hemocytometer and adjusted to 2.5×10^5 cells/mL. V-shaped 96-well plates were seeded with 200 μL of PBMCs (5×10^4) per well and subsequently incubated overnight at 37° C. with 5% CO2. Assay Media was then prepared containing 100 ng/ml of LPS. PBMCs were then centrifuged at 1,200 RPM for 5 min, serum containing media was aspirated, and 150 μL/well of Assay Media+LPS was immediately added. Assay Media without LPS was added in the untreated control wells. Cells were then primed with LPS for 4 h at 37° C. with 5% CO2. A concentration response curve (CRC) was prepared of 1000× test compound in 100% DMSO. The CRC was then diluted 1:50 in Assay Media and then further diluted by 1:5× in Assay Media resulting in a final 4×CRC in 0.4% DMSO/Assay Media. 50 μL/well of 4× test compound CRC or vehicle (0.4% DMSO/Assay Media) was then transferred into each well and subsequently incubated for 30 min at 37° C. with 5% CO2. Cells were stimulated by adding 4 μL of 250 mM ATP, using a 250 mM stock prepared in 1 M Hepes without further dilution (for a final concentration of 5 mM), for 1 h at 37° C. with 5% CO2 Plates were then centrifuged at 1200 RPM for 5 min; and 50 μl of the media was transferred to a clean 96-well storage plate for cytokine measurements using the mesoscale platform, and stored at −80° C. until analyzed. Compounds were added 30 minutes before priming the cells with LPS when TNFα was required to be quantified in the cytokine panel to confirm selectivity.
PBMC NLRP3 IC50 assay results, as a measurement of cellular potency, are provided in Table B. “A” activity=<0.01 uM; “B” activity=0.01-0.1 uM; “C” activity=>0.1-0.5 uM; “D” activity=>0.5 uM.

T1 sequence (Q96P20 whole entry): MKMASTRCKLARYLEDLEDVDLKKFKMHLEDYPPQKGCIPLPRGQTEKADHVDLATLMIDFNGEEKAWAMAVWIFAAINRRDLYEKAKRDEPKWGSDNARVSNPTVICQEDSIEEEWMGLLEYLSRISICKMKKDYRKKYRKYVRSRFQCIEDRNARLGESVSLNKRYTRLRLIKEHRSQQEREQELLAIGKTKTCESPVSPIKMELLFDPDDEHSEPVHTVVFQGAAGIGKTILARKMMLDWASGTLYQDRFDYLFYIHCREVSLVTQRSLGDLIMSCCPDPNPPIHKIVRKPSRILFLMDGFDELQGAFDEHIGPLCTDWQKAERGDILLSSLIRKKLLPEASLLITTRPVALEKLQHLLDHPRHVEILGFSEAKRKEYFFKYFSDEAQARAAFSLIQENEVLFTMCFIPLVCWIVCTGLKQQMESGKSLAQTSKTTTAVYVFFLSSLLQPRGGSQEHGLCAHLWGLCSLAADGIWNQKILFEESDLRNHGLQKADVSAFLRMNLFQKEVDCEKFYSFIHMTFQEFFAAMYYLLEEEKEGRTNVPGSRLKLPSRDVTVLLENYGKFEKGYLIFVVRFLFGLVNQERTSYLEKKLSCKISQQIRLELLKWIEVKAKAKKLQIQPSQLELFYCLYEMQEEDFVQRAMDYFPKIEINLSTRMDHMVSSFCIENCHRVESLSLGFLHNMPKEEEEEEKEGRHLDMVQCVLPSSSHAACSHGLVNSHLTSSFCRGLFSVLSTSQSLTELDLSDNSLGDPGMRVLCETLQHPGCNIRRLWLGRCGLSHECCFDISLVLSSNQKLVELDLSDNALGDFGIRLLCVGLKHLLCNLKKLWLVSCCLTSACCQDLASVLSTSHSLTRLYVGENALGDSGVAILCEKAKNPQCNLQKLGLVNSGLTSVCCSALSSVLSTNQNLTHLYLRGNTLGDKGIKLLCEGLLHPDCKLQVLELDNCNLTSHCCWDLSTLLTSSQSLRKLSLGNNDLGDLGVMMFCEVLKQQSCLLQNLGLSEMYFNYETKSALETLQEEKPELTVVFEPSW

| IC50 (human NLRP3 [1]; Table B, activity class) [µM] | IC50 (human NLRP3 [3]; Table C) [µM] | Compound | IC50 (human NLRP3 [2]; Table B, activity class) [µM] | other results |
| --- | --- | --- | --- | --- |
| 1 to 10 | – | C[C@H]1CCN(c2nnn[nH]2)C[C@@H](NC(=O)N(C)c2ccc(OC(F)F)c(F)c2F)C1 (single isomer, unassigned) [40D*] | > 3 | – |
| – | 39.1 | CN(C(=O)N[C@@H]1CCCN(c2ccccc2)C1)c1ccc(Cl)cc1 [Comparative Example D1, (R)-1-(4-chlorophenyl)-1-methy1-3-(1-phenylpiperidin-3-yl)urea, reference compound] | – | – |
| 1 to 10 | 0.268 | CN(C(=O)N[C@@H]1CCCN(c2nnn[nH]2)C1)c1ccc(Cl)cc1 [Compound 2A, (R)-3-(1-(1H-tetrazol-5-yl)piperidin-3-yl)-1-(4-chlorophenyl)-1-methylurea] | – | IC50 (human NLRP3 [1]; Table C): 9.7 µM; fold improvement in binding activity (SPA IC50) (human NLRP3 [1]): > 19 fold; IC50 (human NLRP3 [3]; Table B, activity class): 0.1 to 0.5 µM; fold increase in potency as measured by PBMC IC50 (human NLRP3 [3]; relative to Comparative Example A*): > 350 fold; fold improvement in potency (PBMC IC50) (human NLRP3 [3]; relative to Comparative Example B1): > 18 fold; fold increase in potency as measured by PBMC IC50 (human NLRP3 [3]; relative to Comparative Example B2): > 15 fold; fold improvement in potency (PBMC IC50) (human NLRP3 [3]; relative to Comparative Example C1): 40 fold; fold improvement in potency (PBMC IC50) (human NLRP3 [3]; relative to Comparative Example C2): > 200 fold; fold increase in potency (PBMC IC50) (human NLRP3 [3]; relative to Comparative Example D1): 146 fold; fold increase in potency (PBMC IC50) (human NLRP3 [3]; relative to Comparative Example D2): > 350 fold; fold increase in potency (PBMC IC50) (human NLRP3 [3]; relative to Comparative Example F): 58 fold; fold increase in potency (PBMC IC50) (human NLRP3 [3]; relative to Comparative Example G): > 350 fold; fold increase in potency (PBMC IC50) (human NLRP3 [3]; relative to Comparative Example H): 39 fold; fold increase in potency (PBMC IC50) (human NLRP3 [3]; relative to Comparative Example J1): > 350 fold; fold increase in potency (PBMC IC50) (human NLRP3 [3]; relative to Comparative Example J2): > 350 fold |
| – | > 100 | O=C(N[C@H]1CCCN(c2ccccc2)C1)c1ccc(Cl)cc1 [Comparative Example J2, (S)-4-chloro-N-(1-phenylpiperidin-3-yl)benzamide, reference compound] | – | – |
| – | > 100 | CN(C(=O)N[C@@H]1CCN(c2nnn[nH]2)C1)c1ccc(Cl)cc1 (single isomer, unassigned) [Comparative Example A*, reference compound] | – | – |
| < 1 | – | C[C@@H]1CCN(c2nnn[nH]2)C[C@H](NC(=O)N(CC2CC2)c2ccc(OC(F)(F)F)cc2)C1 (single isomer, unassigned) [44A*] | 2 to 3 | – |
| < 1 | – | CCN(C(=O)N[C@@H]1C[C@H](C)CN(c2nnn[nH]2)C1)c1ccc(Cl)cc1 [Compound 6A, 1-(4-chlorophenyl)-1-ethyl-3-((3R,5S)-5-methyl-1-(1H-tetrazol-5-yl)piperidin-3-yl)urea] | – | IC50 (human NLRP3 [3]; Table B, activity class): 0.01 to 0.1 µM |
| – | > 100 | O=C(N[C@@H]1CCCN(c2nnn[nH]2)C1)c1ccc(Cl)cc1 [Comparative Example G, (R)-N-(1-(1H-tetrazol-5-yl)piperidin-3-yl)-4-chlorobenzamide, reference compound] | – | – |
| – | 4.2 | CN(C(=O)Nc1cccc(-c2nnn[nH]2)c1)c1ccc(Cl)cc1 [Comparative Example B2, 3-(3-(1H-tetrazol-5-yl)phenyl)-1-(4-chlorophenyl)-1-methylurea, reference compound] | – | IC50 (human NLRP3 [1]; Table C): 12.5 µM; fold improvement in binding activity (SPA IC50) (human NLRP3 [1]): > 15 fold |
| – | > 5 | O=C(Nc1ccc(Cl)cc1)Nc1cccc(-c2nnn[nH]2)c1 [Comparative Example B1, 1-(3-(1H-tetrazol-5-yl)phenyl)-3-(4-chlorophenyl)urea, reference compound] | – | IC50 (human NLRP3 [1]; Table C): 190 µM |
| – | 15.5 | CN(C(=O)N[C@@H]1CCCN(c2nnnn2C)C1)c1ccc(Cl)cc1 [Comparative Example F, (R)-1-(4-chlorophenyl)-1-methyl-3-(1-(1-methy1-1H-tetrazol-5-yl)piperidin-3-yl)urea, reference compound] | – | – |

Further lines, the compound ahead of its results:

| Compound | IC50 (human NLRP3 [1]; Table B, activity class) [µM] | IC50 (human NLRP3 [3]; Table C) [µM] | IC50 (human NLRP3 [2]; Table B, activity class) [µM] | other results |
| --- | --- | --- | --- | --- |
| CCN(C(=O)N[C@@H]1C[C@@H](C)[C@@H]2CC[C@H]1N2c1nnn[nH]1)c1ccc(OC(F)F)cc1F (single isomer, unassigned) [65A*] | < 1 | – | < 1 | – |
| C[C@@H]1CCN(c2nnn[nH]2)C[C@H](NC(=O)N(C)c2ccc(C(F)(F)F)c(F)c2)C1 (single isomer, unassigned) [9A*] | < 1 | – | – | IC50 (human NLRP3 [3]; Table B, activity class): 0.01 to 0.1 µM |
| C[C@@H]1C[C@@H](NC(=O)N(C)c2ccc(OC(F)(F)F)cc2)[C@H]2CC[C@@H]1N2c1nnn[nH]1 (single isomer, unassigned) [45A*] | – | – | < 1 | IC50 (human NLRP3 [1]; Table C): 0.11 µM; fold increase in binding activity (SPA IC50) (human NLRP3 [1]; relative to Compound 39A): > 12 fold; IC50 (human NLRP3 [2]; Table C): 0.42 µM |
| C[C@@H]1CCN(c2nnn[nH]2)C[C@H](NC(=O)N(C)c2ccc(C(F)F)c(F)c2)C1 (single isomer, unassigned) [22A*] | < 1 | – | 1 to 2 | – |
| C[C@@H]1CCN(c2nnn[nH]2)C[C@H](NC(=O)N(C)c2ccc(Cl)cc2Cl)C1 (single isomer, unassigned) [7A*] | < 1 | 0.009 | – | IC50 (human NLRP3 [1]; Table C): 0.24 µM; IC50 (human NLRP3 [3]; Table B, activity class): < 0.01 µM |
| C[C@@H]1C[C@@H](NC(=O)N(C)c2ccc(OC(F)(F)F)c(OC(F)F)c2)[C@H]2CC[C@@H]1N2c1nnn[nH]1 (single isomer, unassigned) [63A*] | < 1 | – | 2 to 3 | – |
| C[C@@H]1C[C@@H](NC(=O)N(C)c2ccc(C(F)(F)F)c(F)c2F)[C@H]2CC[C@@H]1N2c1nnn[nH]1 (single isomer, unassigned) [47A*] | < 1 | – | 1 to 2 | – |
| C[C@@H]1C[C@@H](NC(=O)N(C)c2ccc(C(F)F)cc2F)[C@H]2CC[C@@H]1N2c1nnn[nH]1 (single isomer, unassigned) [55A*] | < 1 | – | < 1 | – |
| C[C@@H]1C[C@@H](NC(=O)N(C)c2ccc(C(F)(F)F)cc2F)[C@H]2CC[C@@H]1N2c1nnn[nH]1 (single isomer, unassigned) [48A*] | < 1 | – | < 1 | – |
| C[C@@H]1C[C@@H](NC(=O)N(C)c2ccc(OC(F)(F)F)c(F)c2)[C@H]2CC[C@@H]1N2c1nnn[nH]1 (single isomer, unassigned) [51A*] | < 1 | – | 1 to 2 | – |
| C[C@@H]1C[C@@H](NC(=O)N(C)c2ccc(OC(F)F)c(F)c2F)[C@H]2CC[C@@H]1N2c1nnn[nH]1 (single isomer, unassigned) [58A*] | – | – | < 1 | – |
| C[C@@H]1CCN(c2nnn[nH]2)C[C@H](NC(=O)N(C)c2ccc(C3CC3)cc2)C1 (single isomer, unassigned) [8A*] | < 1 | – | – | IC50 (human NLRP3 [3]; Table B, activity class): < 0.01 µM |
